From patent publication US9278963B2, “Pyrimidine hydroxy amide compounds as histone deacetylase inhibitors” (Acetylon Pharmaceuticals, Inc., priority 2013, dated 2016)

Legend:
[1] = system: SK-N-BE(2) or SH-SY5Y neuroblastoma cells; test: Neuroblastoma differentiation index; assay type: cell-based; conditions: for differentiation index, low-concentration ATRA: 0.25 μM ATRA, alone or with HDAC inhibitor; for differentiation index: varying concentrations, alone
Method: SK-N-BE(2) or SH-SY5Y neuroblastoma cells were treated with varying concentrations of either Compound X or Y, and/or ATRA (all trans retinoic acid). The differentiation index was measured.
SK-N-BE(2) or SH-SY5Y neuroblastoma cells were treated with varying concentrations of either Compound X or Y, and/or ATRA (all trans retinoic acid). The differentiation index was measured. As a control, SK-N-BE(2) or SH-SY5Y neuroblastoma cells were treated with varying concentrations of ATRA.

[2] = system: SH-SY5Y neuroblastoma cells; test: Neuroblastoma cell cycle by flow cytometry, SH-SY5Y; assay type: cell-based; conditions: for cell cycle stages and fold change of p21: 4 days; for percent of the cell population in G2, S, G1 and Sub G1 phase: 72 hours, 0.5, 2 and 5 μM (ATRA 1 μM)
Method: The following is a quick summary of the neuroblastoma cell cycle experiments. Adherent cells were plated into 12-well plates at 10^6 cells/well and allowed to adhere for 2-4 hours. Compounds were dispensed in DMSO at the indicated concentrations using an automated liquid handling system (Tecan D300) and incubated for the indicated times at 37° C. with 5% CO2. Cells were harvested with enzyme-free cell disassociation solution and washed with buffered saline. Cells were fixed overnight with 100% ethanol. Cell cycle was assessed by flow cytometry using the Molecular Probes FxCycle PI/RNase Staining Solution kit according to manufacture protocols.
The protocol for the cell cycle experiments was as follows. The day before the experiment, the cells were fed in the flask by doubling the media. Then, the cells were harvested by adding non-enzymatic cell dissociation media and incubating at 37° C. for 15 minutes. Next, the cells were transferred to a 50 ml tube and pipet to create a single-cell suspension. The cells were then washed with PBS buffer. Then, the cells were resuspended in complete media at 5×10^5 cells per ml. Next, 2 ml of cells were transferred to 12-well plates. Then, the treatment compounds were dispensed into each well using the D300 liquid handler. The cells were incubated for the indicated time at 37° C. Then, the cells were harvested by adding 500 μl enzyme free cell dissociation solution and incubating at 37° C. for 15 minutes. Next, the cells were spun into a pellet and then washed with PBS. Then, 500 μl 100% EtOH was added and incubated at 4° C. overnight. Then, the cells were washed 3× with PBS. The cells were then resuspended in […] FxCycle PI/RNase solution, and incubated for 2-4 hours at room temperature. Finally, the cells were assayed by flow cytometry.
SH-SY5Y neuroblastoma cells were treated with varying concentrations of either Compound X or Y, and/or ATRA (all trans retinoic acid). […] In addition, the fold change of p21 was also calculated. […] The HDACi/ATRA combination effects were modest, with little difference compared to single agents.

[3] = system: SK-N-BE(2) neuroblastoma cells; test: Neuroblastoma cell cycle and p21, SK-N-BE(2); assay type: cell-based; conditions: 4 days
Method: SK-N-BE(2) neuroblastoma cells were treated with varying concentrations of either Compound X or Y, and/or ATRA (all trans retinoic acid). The percentage of the population of the cells at various stages of the cell cycle were measured after 4 days. In addition, the fold change of p21 was also calculated. […] The HDACi/ATRA combination effects were modest, with little difference compared to single agents.

[4] = system: BE(2)-C neuroblastoma cells; test: Neuroblastoma maturation gene expression, BE(2)-C; assay type: cell-based
Method: (§1) The following is a quick summary of the HDAC neuroblastoma maturation experiments. Adherent cells were plated into 12- or 24-well plates at 10^6 cells/well and allowed to adhere for 2-4 hours. Compounds were dispensed in DMSO at the indicated concentrations using an automated liquid handling system (Tecan D300) and incubated for the indicated times at 37° C. with 5% CO2. Cells were harvested and RNA extracted using the Qiagen RNeasy Mini Kit according to manufacture protocols. The RNA was quantified and relative expression levels were assessed using the Applied Biosystems TaqMan RNA-to-Ct Kit according to manufacture protocols using the indicated TaqMan probes.
(§2) The protocol for the maturation experiments was as follows. The day before the experiment, the cells were fed in the flask by doubling the media. The cells were then harvested by adding non-enzymatic cell dissociation media and incubating at 37° C. for 15 minutes. The cells were transferred to a 50 ml tube and pipet to create a single-cell suspension. The cells were washed with PBS buffer. The cells were then resuspended in complete media at 5×10^5 cells per ml. Next, 2 ml of cells were transferred to 24- or 12-well plates. The treatment compounds were then dispensed into each well using the D300 liquid handler. The cells were then incubated for the indicated time at 37° C. The cells were harvested by scraping the cells and transferring to a 2 ml tube. The cells were spun to form a pellet. Next, RNA was extracted using the Qiagen RNeasy Mini kit according to manufacture protocols. The RNA concentration was recorded. The relative RNA levels were assessed using the Applied Biosystems TaqMan RNA-to-Ct kit according to manufacture protocols using the indicated Taqman probes.

[5] = system: SH-SY5Y neuroblastoma cells; test: Neuroblastoma maturation gene expression, SH-SY5Y; assay type: cell-based; conditions: 72 hours, 1 μM
Method: as §1
as §2, with “The treatment compounds were then dispensed into each well using the D300 liquid handler. The cells were then incubated for the indicated time at 37° C. The cells were harvested by scraping the cells and transferring to a 2 ml tube. The cells were spun to form a pellet. Next, RNA was extracted using the Qiagen RNeasy Mini kit according to manufacture protocols.” left out

HDAC2 = HDAC2 (Homo sapiens (Human), UniProt Q92769); test: HDAC enzyme assay, HDAC2; assay type: biochemical
Chain of HDAC2 (Q92769 whole entry): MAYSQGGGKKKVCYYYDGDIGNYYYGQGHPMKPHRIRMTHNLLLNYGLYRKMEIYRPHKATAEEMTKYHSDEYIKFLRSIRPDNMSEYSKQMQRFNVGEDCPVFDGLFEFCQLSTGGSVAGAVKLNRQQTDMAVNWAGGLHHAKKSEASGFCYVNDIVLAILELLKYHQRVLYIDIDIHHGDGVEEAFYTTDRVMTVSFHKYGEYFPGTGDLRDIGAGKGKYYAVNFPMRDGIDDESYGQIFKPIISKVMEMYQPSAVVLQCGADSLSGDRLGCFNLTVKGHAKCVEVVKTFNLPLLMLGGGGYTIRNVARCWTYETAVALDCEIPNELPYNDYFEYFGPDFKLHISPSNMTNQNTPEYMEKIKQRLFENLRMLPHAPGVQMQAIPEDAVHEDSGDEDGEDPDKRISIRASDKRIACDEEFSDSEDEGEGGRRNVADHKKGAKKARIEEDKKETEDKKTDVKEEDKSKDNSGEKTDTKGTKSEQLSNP
Method: (§3) Compounds for testing were diluted in DMSO to 50 fold the final concentration and a ten point three fold dilution series was made. The compounds were diluted in assay buffer (50 mM HEPES, pH 7.4, 100 mM KCl, 0.001% Tween-20, 0.05% BSA, 20 μM TCEP) to 6 fold their final concentration. The HDAC enzymes (purchased from BPS Biosciences) were diluted to 1.5 fold their final concentration in assay buffer. The tripeptide substrate and trypsin at 0.05 μM final concentration were diluted in assay buffer at 6 fold their final concentration. The final enzyme concentrations used in these assays were 3.3 ng/ml (HDAC1), 0.2 ng/ml (HDAC2), 0.08 ng/ml (HDAC3) and 2 ng/ml (HDAC6). The final substrate concentrations used were 16 μM (HDAC1), 10 μM (HDAC2), 17 μM (HDAC3) and 14 μM (HDAC6).
(§4) Five μl of compounds and 20 μl of enzyme were added to wells of a black, opaque 384 well plate in duplicate. Enzyme and compound were incubated together at room temperature for 10 minutes. Five μ1 of substrate was added to each well, the plate was shaken for 60 seconds and placed into a Victor 2 microtiter plate reader. The development of fluorescence was monitored for 60 min and the linear rate of the reaction was calculated. The IC50 was determined using Graph Pad Prism by a four parameter curve fit.

HDAC1 = HDAC1 (Homo sapiens (Human), UniProt Q13547); test: HDAC enzyme assay, HDAC1; assay type: biochemical
Chain of HDAC1 (Q13547 whole entry): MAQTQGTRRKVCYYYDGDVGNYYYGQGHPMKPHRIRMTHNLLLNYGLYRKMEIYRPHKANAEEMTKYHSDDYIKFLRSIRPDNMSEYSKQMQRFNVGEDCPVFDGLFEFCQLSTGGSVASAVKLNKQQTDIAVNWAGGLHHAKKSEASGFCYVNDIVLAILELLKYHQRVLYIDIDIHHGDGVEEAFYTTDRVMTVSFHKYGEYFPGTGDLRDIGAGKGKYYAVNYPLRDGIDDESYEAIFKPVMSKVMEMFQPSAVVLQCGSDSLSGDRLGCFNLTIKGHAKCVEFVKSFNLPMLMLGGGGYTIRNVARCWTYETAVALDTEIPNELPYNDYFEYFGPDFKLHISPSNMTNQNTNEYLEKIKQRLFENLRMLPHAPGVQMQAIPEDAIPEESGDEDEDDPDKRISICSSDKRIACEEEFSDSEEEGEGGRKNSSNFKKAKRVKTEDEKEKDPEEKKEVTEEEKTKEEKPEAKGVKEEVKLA
Method: as §3, §4

HDAC3 = HDAC3 (Homo sapiens (Human), UniProt O15379); test: HDAC enzyme assay, HDAC3; assay type: biochemical
Chain of HDAC3 (O15379 whole entry): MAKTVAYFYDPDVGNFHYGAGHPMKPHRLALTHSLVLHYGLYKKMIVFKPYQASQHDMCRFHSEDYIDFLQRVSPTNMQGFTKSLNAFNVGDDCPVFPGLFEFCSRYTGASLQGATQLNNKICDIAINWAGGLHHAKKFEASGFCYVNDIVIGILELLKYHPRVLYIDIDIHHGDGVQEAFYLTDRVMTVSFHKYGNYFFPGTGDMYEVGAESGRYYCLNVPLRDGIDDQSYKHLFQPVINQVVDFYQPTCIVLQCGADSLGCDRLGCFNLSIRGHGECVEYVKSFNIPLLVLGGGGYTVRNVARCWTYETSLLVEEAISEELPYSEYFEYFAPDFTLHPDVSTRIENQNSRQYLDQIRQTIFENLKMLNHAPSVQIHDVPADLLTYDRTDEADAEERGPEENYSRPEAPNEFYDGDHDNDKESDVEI
Chain of HDAC3 (Q9Y618 395-489 partner): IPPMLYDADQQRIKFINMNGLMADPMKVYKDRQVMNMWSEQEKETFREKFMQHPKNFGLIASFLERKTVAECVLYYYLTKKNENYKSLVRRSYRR
Method: as §3, with “The HDAC enzymes (purchased from BPS Biosciences) were diluted to 1.5 fold their final concentration in assay buffer.” left out, “(HDAC6).” for “(HDAC6). The final substrate concentrations used were 16 μM (HDAC1), 10 μM (HDAC2), 17 μM (HDAC3) and 14 μM (HDAC6).”
as §4

[6] = system: human CD34+ bone marrow cells; test: Cellular viability of cultured CD34+ bone marrow cells; conditions: 1 μM, treatment for 4 days
HDAC6 = HDAC6 (Homo sapiens (Human), UniProt Q9UBN7); test: HDAC enzyme assay, HDAC6; assay type: biochemical
Chain of HDAC6 (Q9UBN7 whole entry): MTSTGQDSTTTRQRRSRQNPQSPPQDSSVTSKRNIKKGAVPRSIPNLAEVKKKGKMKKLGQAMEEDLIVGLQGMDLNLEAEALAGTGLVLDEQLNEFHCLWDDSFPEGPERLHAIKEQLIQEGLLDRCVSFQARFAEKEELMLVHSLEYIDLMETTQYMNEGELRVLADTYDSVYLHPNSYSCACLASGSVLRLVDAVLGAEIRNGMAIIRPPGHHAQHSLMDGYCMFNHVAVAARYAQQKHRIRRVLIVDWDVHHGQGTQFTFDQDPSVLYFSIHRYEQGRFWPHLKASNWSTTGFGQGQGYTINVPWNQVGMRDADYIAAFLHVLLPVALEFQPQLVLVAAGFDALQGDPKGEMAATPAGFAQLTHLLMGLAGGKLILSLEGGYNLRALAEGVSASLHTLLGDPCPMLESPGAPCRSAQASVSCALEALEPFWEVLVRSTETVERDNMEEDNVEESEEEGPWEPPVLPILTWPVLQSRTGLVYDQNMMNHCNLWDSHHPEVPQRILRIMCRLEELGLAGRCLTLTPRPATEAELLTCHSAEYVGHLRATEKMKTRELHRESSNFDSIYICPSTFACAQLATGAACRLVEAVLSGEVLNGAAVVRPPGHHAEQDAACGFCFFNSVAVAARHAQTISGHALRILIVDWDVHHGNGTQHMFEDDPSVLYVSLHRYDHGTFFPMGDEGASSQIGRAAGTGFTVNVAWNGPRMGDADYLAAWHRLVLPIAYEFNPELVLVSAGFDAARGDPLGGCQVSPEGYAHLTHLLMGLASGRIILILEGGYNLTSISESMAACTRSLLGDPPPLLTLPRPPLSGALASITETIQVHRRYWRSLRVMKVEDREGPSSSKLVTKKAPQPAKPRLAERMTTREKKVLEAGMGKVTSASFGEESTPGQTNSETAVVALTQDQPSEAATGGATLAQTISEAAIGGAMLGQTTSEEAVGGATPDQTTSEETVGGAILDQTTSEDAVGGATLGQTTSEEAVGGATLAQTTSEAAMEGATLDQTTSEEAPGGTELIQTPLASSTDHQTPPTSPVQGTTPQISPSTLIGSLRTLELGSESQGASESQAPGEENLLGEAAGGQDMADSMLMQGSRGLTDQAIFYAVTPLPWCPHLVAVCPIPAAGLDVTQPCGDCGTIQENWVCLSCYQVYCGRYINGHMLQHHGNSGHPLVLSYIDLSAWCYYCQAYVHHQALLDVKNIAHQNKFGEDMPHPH
Method: as §3
as §4, with “fit. The IC50 values obtained for several of the compounds of this invention are found in Table 1.” for “fit.”

Row | Compound | differentiation index, low-concentration ATRA [1] | IC50 (HDAC2) [nM] | IC50 (HDAC1) [nM] | IC50 (HDAC3) [nM] | IC50 (HDAC6) [nM] | also measured
1 | O=C(CCCCCCNC(=O)c1cnc(N(c2ccccc2)c2ccccc2Cl)nc1)NO [Compound Y, 2-((2-chlorophenyl)(phenyl)amino)-N-(7-(hydroxyamino)-7-oxoheptyl)pyrimidine-5-carboxamide] | potentiated 0.25 μM ATRA |  |  |  |  | differentiation index [1]: induced an increase in the differentiation index; cell cycle stages and fold change of p21 [2]: induced cell cycle arrest; cell cycle stages and fold change of p21 [3]: induced cell cycle arrest
2 | Nc1ccc(-c2cccs2)cc1NC(=O)c1ccc2c(c1)cc(C1CC1)n2CCN1CCOCC1 [Compound X, N-(2-amino-5-(thiophen-2-yl)phenyl)-2-cyclopropyl-1-(2-morpholinoethyl)-1H-indole-5-carboxamide] | potentiated 0.25 μM ATRA | 36 | 6 | 445 |  | differentiation index [1]: induced an increase in the differentiation index; fold change of genes associated with maturation ([4]; 72 hours, 1 μM): alters genes associated with maturation; fold change of genes associated with maturation ([4]; 4 days, 0.5, 1 and 3 μM): alters genes associated with maturation; fold change of genes associated with maturation [5]: alters genes associated with maturation; percent of the cell population in G2, S, G1 and Sub G1 phase [2]: induced similar cell cycle changes in all treatment groups; cell cycle stages and fold change of p21 [2]: induced cell cycle arrest; cell cycle stages and fold change of p21 [3]: induced cell cycle arrest
3 | O=C(CCCCCCNC(=O)c1cnc(N(c2ccccc2)c2ccccc2)nc1)NO [Compound A, 2-(diphenylamino)-N-(7-(hydroxyamino)-7-oxoheptyl) pyrimidine-5-carboxamide, reference compound] |  |  |  |  |  | decrease in cells viability [6]: 20 fold
4 | CC1=C(/C=C/C(C)=C/C=C/C(C)=C/C(=O)O)C(C)(C)CCC1 [ATRA, all trans retinoic acid, reference compound] | sub-optimal |  |  |  |  | percent of the cell population in G2, S, G1 and Sub G1 phase [2]: little impact on cell cycle
5 | CN(C(=O)N1CCC(Nc2ncc(C(=O)NO)cn2)(c2ccccc2)CC1)c1ccccc1 [Compound 012, N-hydroxy-2-((1-(methyl(phenyl)carbamoyl)-4-phenylpiperidin-4-yl)amino)pyrimidine-5-carboxamide] |  | 377 | 266 | 1620 | 2.2 | 
6 | O=C(NO)c1cnc(NC2(c3ccccc3)CCN(C(=O)Cc3cc4ccccc4[nH]3)CC2)nc1 [Compound 031, 2-((1-(2-(1H-indol-2-yl)acetyl)-4-phenylpiperidin-4-yl)amino)-N-hydroxypyrimidine-5-carboxamide] |  | 9 | 10 | 42 | 5 | 
7 | CC(C)[C@H](C(=O)N1CCC(Nc2ncc(C(=O)NO)cn2)(c2ccccc2)CC1)c1ccccc1 (stereo in doubt) [Compound 026, N-hydroxy-2-((1-(3-methyl-2-phenylbutanoyl)-4-phenylpiperidin-4-yl)amino)pyrimidine-5-carboxamide] |  | 173 | 206 | 1100 | 5 | 
8 | O=C(NO)c1cnc(NC2(c3ccccc3)CCN(C(=O)Nc3c(F)cccc3F)CC2)nc1 [Compound 024, 2-((1-((2,6-difluorophenyl)carbamoyl)-4-phenylpiperidin-4-yl)amino)-N-hydroxypyrimidine-5-carboxamide] |  | 22 | 22 | 761 | 3.7 | 
9 | O=C(NO)c1cnc(NC2(c3ccccc3)CCN(C(=O)Nc3ccc(F)cc3)CC2)nc1 [Compound 014, 2-((1-((4-fluorophenyl)carbamoyl)-4-phenylpiperidin-4-yl)amino)-N-hydroxypyrimidine-5-carboxamide] |  | 43 | 33 | 1070 | 2 | 
